Consider 3 compounds from patent US7662968B2, “Process for preparing lansoprazole” (KRKA tovarna zdravil, d.d.., priority 2005, dated 2010).

Where “and” joins values, the source holds several entries; their conditions need not be identical. Identical values can stand only once.

Series [1] is described as follows: BET-surface area determination (nitrogen desorption, BET FlowSorb II 2300). It is filed as physicochemical. The settings on record: 30 vol. % nitrogen / 70 vol. % helium at 77 K. How it is done:
Unless otherwise noted, the BET-surface areas of the produced lansoprazole are determined by calculation from desorption data of nitrogen obtained on a BET FlowSorb II 2300 (Micromeritics Instrument Corp., USA) using a mixture of 30 vol. % nitrogen and 70 vol. % helium at 77 K.

Series [2] can be described thus: Release of lansoprazole from pellets (dissolution, Ph. Eur. Paddle method). The format is physicochemical. The settings on record: paddle 100 rpm, after one hour in artificial gastric juice pH 1.2, FIG. 1; for release of lansoprazole from pellets (comparison in words): phosphate buffer pH 6.8, 37° C. How it is done: The release of lansoprazole was spectrophotometrically determined using Hewlett Packard 8452 A Diode array spectrophotometer and automatic sampling system Multicell Transport System. Dissolution profiles were obtained at 37° C. using 900 ml phosphate buffer solution having pH 6.8 and Ph. Eur. Paddle method (100 rpm). Before analysis, the pellet samples were treated with artificial gastric juice (500 ml) having a pH of 1.2 for one hour, washed and quantitatively transferred into the phosphate buffer. […] Preferably more than 80%, more preferably more than 85% and most preferred more than 90% of lansoprazole are released from the compositions according to the invention within 30 minutes.
If a lansoprazole prepared according to example 4 having a BET-surface area of 4.76 m^2/g is used, more than 90% of the drug is released within the first 30 minutes (upper curve).

Setting [3] is: lansoprazole form A as obtained after purification and drying.

In the case of `Cc1c(OCC(F)(F)F)ccnc1C[S+]([O-])c1nc2ccccc2[nH]1` (centres unmarked) [Example 3, 2-[[[3-methyl-4-(2,2,2-trifluoroethoxy)-2-pyridinyl]methyl]sulfinyl]-1H-benzimidazole], the BET-surface area in series [1] (setting [3]) amounted to 0.25 m^2/g; in series [1] (lansoprazole form A further milled) it was 0.87 m^2/g. For the same compound, in series [2], the “release of lansoprazole from pellets (comparison in words)” value (“release of lansoprazole from pellets” below) is “clearly smaller release”.

Turning to `Cc1c(OCC(F)(F)F)ccnc1C[S+]([O-])c1nc2ccccc2[nH]1` (centres unmarked) [Example 5, 2-[[[3-methyl-4-(2,2,2-trifluoroethoxy)-2-pyridinyl]methyl]sulfinyl]-1H-benzimidazole], the BET-surface area in series [1] (setting [3]) was 1.0 m^2/g and 1.00 m^2/g. Besides, in series [2], the “release of lansoprazole from pellets” value was “clearly smaller release”.

`Cc1c(OCC(F)(F)F)ccnc1C[S+]([O-])c1nc2ccccc2[nH]1` (centres unmarked) [Example 4, 2-[[[3-methyl-4-(2,2,2-trifluoroethoxy)-2-pyridinyl]methyl]sulfinyl]-1H-benzimidazole]: the BET-surface area in series [1] (setting [3]) was 4.67 m^2/g and 4.76 m^2/g. In addition, the drug released entry in series [2] (pellets prepared according to Example 8, within the first 30 minutes, 900 ml phosphate buffer pH 6.8, 37° C.) is given as “more than 90%”. Moreover, the “release of lansoprazole from pellets” value in series [2] (listed as lansoprazole having a BET-surface area of 4.67 m^2/g) was “clearly faster”.
